In series [1] the test system is ILA1 CTL. Nature of the series: pMHCI tetramer staining of ILA1 CTL clone after PKI pre-treatment (flow cytometry). Conditions: for enhancement of tetramer staining after PKI pre-incubation: ILA1 CTL, data not shown. In kind it is cell-based, human. On the technique in general: In flow cytometry, cells or beads pass a laser one at a time.
Another series deals with T-cell clones. Nature of the series: Recovery of responsiveness to antigen after drug removal. Type of series: cell-based. To be noted: T-cell clones incubated in 50 nM dasatinib for 24 hours; data not shown.
Series [2] relates to CTL lines (Melan-A/Mart-1 26-35 and influenza matrix M1 58-66). Nature of the series: Cognate tetramer staining of HLA A2-restricted CTL lines expanded from PBMC. Conditions: 50 nM dasatinib. In kind it is cell-based, human.
Series [3] deals with tetramer-positive CD3+CD8+ T-cells. In kind it is cell-based, human. Here is the method: . It is known that pMHCI tetramer-induced signaling can trigger cell death (Purbhoo et al., 2001; Xu et al., 2001; Guillaume et al., 2003; Cebecauer et al., 2005). Cell death induced by tetramer staining was assessed using the amine-reactive viability dye GrViD at the end of the staining procedure, which is spectrally distinct from ViViD. PBMC were stained with ViViD to identify and allow exclusion of dead and dying cells prior to the addition of pMHCI tetramer; GrVID staining was performed after pMHCI tetramer and surface antibody staining. Data were acquired on a BD LSR II flow cytometer and analyzed using FlowJo software. ViViD^±, CD14^+ and CD19^+ cells were excluded from the analysis and the frequency of GrViD-positive cells was assessed in the tetramer-positive CD3+CD8^+ T-cell populations. Representative flow profiles are shown here for CD^+T-cells specific for the HLA A2-restricted epitopes CMV pp65495-503 ([…](SEQ ID NO:3)) and EBV BMLFI259-267 ([…] SEQ ID NO:4)). […]. […] Stained PBMC were acquired on a BD LSR II (Becton Dickinson Immunocytometry Systems, San Jose, Calif., USA) and analyzed using FlowJo software (Tree Star, Inc., Ashland, Oreg., USA).

The next series deals with naïve murine F5 TCR CTL. Nature of the series: H2-Db/[…] tetramer staining of F5 TCR transgenic splenocytes. Conditions: 50 nM dasatinib 30 minutes. In kind it is cell-based, mouse. From the text: C. […] Samples were washed with PBS before flow cytometric analysis.
In series [4] the test system is ILA1 CTL. Nature of the series: TCR and CD8 expression levels at the CTL cell surface. In kind it is cell-based, human. Conditions: 50 nM dasatinib 37° C.
A short description of series [5]: Shelf-life of working solution. To be noted: 100 nM in PBS. Type of series: physicochemical. The procedure: Biological activity was tested in a cell death titration assay on BA/F3 bcr-abl cells as described previously (Magnusson et al., 2002). […] The 1 mM DMSO stock was diluted 1/10,000 in PBS on the day of experimentation to achieve a working solution of 100 nM; subsequent ½ dilution yielded a final concentration of 50 nM in cellular assays unless stated otherwise. The 100 nM working solution was always made up on the day of experimentation as the shelf-life of this solution is short (˜days). Staurosporine (Biomol), Lck inhibitor II (Calbiochem), genestein (calbiochem), herbimycin A (Calbiochem), PP2 (Calbiochem) and PP3 (Calbiochem) were dissolved and stored at −20° C. in DMSO. PKIs were dissolved in PBS prior to use and tested at concentrations of 1 nM, 3 nM, 5 nM, 10 nM, 20 nM, 50 nM, 100 nM, 250 nM, 500 nM and 1 μM.

For series [6], the system named is antigen-specific CD8+ T-cells in PBMC. Nature of the series: pMHCI tetramer staining of PBMC directly ex vivo. Type of series: cell-based, human.
Series [7] relates to HLA DR*0101-restricted CD4+ T-cell clone C6. Conditions: 50 nM dasatinib 30 minutes.
In another series the test system is T-cells. To be noted: cited from earlier work.
Series [8] has as its system ILA1 CTL. Nature of the series: pMHCI tetramer on-rate experiment. Conditions: dasatinib+tetramer; 50 nM 30 minutes 37° C.; HLA A2/hTERT540-548 tetramer.
A further series deals with Mel13 CTL. Nature of the series: Antigen-induced TCR downregulation. Conditions: 50 nM dasatinib; peptide-pulsed C1R-A2 B cells, 4 hours.
Series [9] addresses IE6 TCR (on CTL clone IE6).

“And” between values parts separate entries of the source, which are not always exact repeats. Identical values can stand only once. “Also recorded” adds a separate entry of the source.

We go through 8 compounds from US9404916B2, “Use of a protein kinase inhibitor to detect immune cells, such as T cells” (University College Cardiff Consultants Limited, priority 2008, dated 2016).

`CC(C)(C)n1nc(-c2ccc(Cl)cc2)c2c(N)ncnc21` [PP2]: the “enhancement of tetramer staining after PKI pre-incubation” value (“enhancement of tetramer staining” for short) in the series on ILA1 CTL [1] was “moderate increase”.
`Nc1ncnc2c1cnn2-c1ccccc1` [PP3]: in the series on ILA1 CTL [1], the “enhancement of tetramer staining” value is given as “no significant enhancement”.
Consider `Cc1nc(Nc2ncc(C(=O)Nc3c(C)cccc3Cl)s2)cc(N2CCN(CCO)CC2)n1` [dasatinib, N-(2-chloro-6-methyl-phenyl)-2-(6-(4-(2-hydroxyethyl)-piperazin-1-yl)-2-methylpyrimidin-4-ylamino)thiazole-5-carboxamide], for which, in the series on ILA1 CTL [1], the “increase in pMHCI tetramer staining” value is reported as 60% and the “increase in pMHCI tetramer staining intensity” value was found to be 89%. In addition, in the series on T-cell clones, the “time to regain responsiveness to antigen after drug removal” value was no more than 1 h. In series [2], the “increase in fluorescence intensity of T-cells that bound tetramer weakly” value is recorded as greater than 20 fold and the “increase in staining intensity of all cognate CD8+ T-cells” value is on record as “at least 2 fold”. Further, the “frequency of GrViD-positive dead cells within the tetramer-positive population” value in [3] is recorded as “always lower; also recorded: reduced”. Also, the “pMHCI tetramer staining of naïve murine F5 TCR CTL directly ex vivo” value with naïve murine F5 TCR CTL is given as “enhanced”. Moreover, the “time until significant increases in TCR and CD8 levels” value with ILA1 CTL [4] was greater than 30 min. In series [5], the “shelf-life of 100 nM working solution” value is given as “short”. Also, in [6], the “pMHCI staining intensity and percentage of antigen-specific CD8+ T-cells” value was “substantial increase”. Moreover, the “pMHCII tetramer staining of CD4+ T-cell clone” value in [7] is on record as “enhanced”. Moreover, in the series with T-cells, the “concentrations not toxic to T-cells in the short term” value is recorded as less than 100 nM. Moreover, in the series with ILA1 CTL [8], the “tetramer on-rate, fast rate” value came out at 0.42 min⁻¹ and the “tetramer on-rate, slow rate” value was found to be 0.06 min⁻¹. In addition, the “antigen-induced TCR downregulation from the CTL surface” value in the series on Mel13 CTL is reported as “block antigen-induced TCR downregulation”.
In the case of `O=c1c(-c2ccc(O)cc2)coc2cc(O)cc(O)c12` [genestein], the “enhancement of tetramer staining” value with ILA1 CTL [1] is given as “no significant enhancement”.
For `CO[C@H]1[C@@H](OC)C[C@H](C)[C@@H](OC)C2=CC(=O)C=C(NC(=O)/C(C)=C/C=C\[C@H](OC)[C@@H](OC(N)=O)/C(C)=C/[C@@H]1C)C2=O` [herbimycin, herbimycin A], the “enhancement of tetramer staining” value in the series on ILA1 CTL [1] is given as “no significant enhancement”.
As to `CN[C@@H]1C[C@H]2O[C@@](C)([C@@H]1OC)n1c3ccccc3c3c4c(c5c6ccccc6n2c5c31)C(=O)NC4` [staurosporine], the “enhancement of tetramer staining” value in the series on ILA1 CTL [1] is given as “no significant enhancement”.
In turn, “HLA A2 presenting PPI15-24 peptide on pulsed target cells (from UniProt P61769 21-119) (peptide-MHC)” returned a % TNFα-positive cells (intracellular cytokine staining, TNF-APC against SSC-Height, 6 h with PPI peptide) in series [9] of 30.9%.
Regarding “HLA A2/PPI15-24 tetramer (from UniProt P61769 21-119) (peptide-MHC)”, in the series with Short term line, the MFI was 217 and 347.
